Experimental findings from patent publication US20120302584A1, “NOVEL SALTS FORMS OF PYRIMIDIN-5-YL ACETIC ACID DERIVATIVE” (BOEHRINGER INGELHEIM INTERNATIONAL GMBH, priority 2009, published 2012) are described below.

Each structure is given as a SMILES string. Converted amounts (≈) assume the structure as drawn. Structures can show the parent of a compound that is named as a salt.

Data set [1] can be described thus: Kinetic solubility in sodium dodecyl sulfate solution at pH 6.8 and 37° C. Type of data set: physicochemical. The following applies: for maximum solubility (kinetic solubility): pH 6.8, 0.2% sodium dodecyl sulfate (SDS) solution, after about 5 minutes. The method, then:
FIG. 7 also depicts comparative kinetic solubility for the acid-free form of the compound of formula (I)(♦), a choline salt of the compound of formula (I)( ? ), and an ethylenediamine salt of the compound of formula (I) (▴).
After 60 minutes, the solubilities ranged from about 150 μg/mL (for the ethylenediamine salt of the compound of formula (I)) to about 245 μg/mL (for the choline salt of the compound of formula (I)).

Data set [2] in a line: Dynamic vapor sorption (water sorption/desorption). Type of data set: physicochemical. Particulars: 25° C.; for hygroscopicity (in words): conditions used in this analysis. The method, then:
Vapor sorption/desorption was carried out using Surface Measurement Systems DVS-HT. Samples were placed into a foil insert placed on a sample pan. […] The equilibrium point of each step was reached when 0.002% of weight change was reached.

Where [3] appears, read: pH 6.8, 0.2% SDS solution, after 60 minutes.

Regarding `CN(C)c1nc(Cc2ccc(NC(=O)c3ccc(C(F)(F)F)cc3)cc2)nc(N(C)C)c1CC(=O)O` [ethylenediamine salt of the compound of formula (I)] [[4,6-bis(dimethylamino)-2-(4-{[4-(trifluoromethyl)benzoyl]amino}benzyl)pyrimidin-5-yl] acetic acid, reference compound], the “solubility after 60 minutes (kinetic solubility)” value in data set [1] (setting [3]) is “about 150 μg/mL”. In data set [1] (listed as ethylenediame salt of the compound of formula (I)), the “maximum solubility (kinetic solubility)” value is listed as “about 670 μg/mL”.
As to `CN(C)c1nc(Cc2ccc(NC(=O)c3ccc(C(F)(F)F)cc3)cc2)nc(N(C)C)c1CC(=O)O` [sodium salt of the invention, [4,6-bis(dimethylamino)-2-(4-{[4-(trifluoromethyl)benzoyl]amino}benzyl)pyrimidin-5-yl] acetic acid], in data set [1], the “maximum solubility (kinetic solubility)” value is reported as “about 1010 μg/mL”. For the same compound, in data set [2], the “hygroscopicity (in words)” value was “hygroscopic” and the “moisture gain through 85% relative humidity” value is recorded as “about 17%”. For the same compound, the “moisture gain through 55% relative humidity” value in data set [2] (55% relative humidity) is “less than 2%”.
The kinetic solubility is solubility judged after dilution from a stock solution rather than from solid. In turn, `CN(C)c1nc(Cc2ccc(NC(=O)c3ccc(C(F)(F)F)cc3)cc2)nc(N(C)C)c1CC(=O)O` [[4,6-bis(dimethylamino)-2-(4-{[4-(trifluoromethyl)benzoyl]amino}benzyl)pyrimidin-5-yl] acetic acid, reference compound] returned a kinetic solubility at 60 min in data set [1] (0.2% sodium dodecyl sulfate (SDS) solution, 37 °C, pH 6.8, aqueous with cosolvent or surfactant or cyclodextrin, pH 6.8, 0.2% SDS solution, after 60 minutes) of about 245 µg/mL (≈ 489 µM).
For `CN(C)c1nc(Cc2ccc(NC(=O)c3ccc(C(F)(F)F)cc3)cc2)nc(N(C)C)c1CC(=O)O` [free acid form of the compound of formula (I)] [[4,6-bis(dimethylamino)-2-(4-{[4-(trifluoromethyl)benzoyl]amino}benzyl)pyrimidin-5-yl] acetic acid], in data set [1] (setting [3]), the “solubility after 60 minutes (kinetic solubility)” value is “essentially unchanged”. The “maximum solubility (kinetic solubility)” value in data set [1] was “about 50 μg/mL”.
Take `CN(C)c1nc(Cc2ccc(NC(=O)c3ccc(C(F)(F)F)cc3)cc2)nc(N(C)C)c1CC(=O)O` [choline salt of the compound of formula (I)] [[4,6-bis(dimethylamino)-2-(4-{[4-(trifluoromethyl)benzoyl]amino}benzyl)pyrimidin-5-yl] acetic acid, reference compound]: in data set [1], the “maximum solubility (kinetic solubility)” value is on record as “about 960 μg/mL”.
For `CN(C)c1nc(Cc2ccc(NC(=O)c3ccc(C(F)(F)F)cc3)cc2)nc(N(C)C)c1CC(=O)O` [N-methyl-D-glucamine salt of the invention] [[4,6-bis(dimethylamino)-2-(4-{[4-(trifluoromethyl)benzoyl]amino}benzyl)pyrimidin-5-yl] acetic acid], in data set [1], the “maximum solubility (kinetic solubility)” value is listed as “about 910 μg/mL”. Moreover, in data set [2], the “hygroscopicity (in words)” value is listed as “mild hygroscopicity” and the “moisture gain through 85% relative humidity” value is “about 3.7%”.
